Assay: solvent given as SMILES

## Oc1ccccc1F
In CC(C)CC(C)(C)C
  solvation free energy, 298 K: -4.58 kcal/mol
In CCCCCC
  solvation free energy, 298 K: -4.69 kcal/mol
In CCCCCCC
  solvation free energy, 298 K: -4.7 kcal/mol
In CCCCCCCC
  solvation free energy, 298 K: -4.52 kcal/mol
In CCCCCCCCCC
  solvation free energy, 298 K: -4.58 kcal/mol
In Cc1ccc(C)cc1
  solvation free energy, 298 K: -5.86 kcal/mol
In Cc1cccc(C)c1
  solvation free energy, 298 K: -5.89 kcal/mol
In Cc1ccccc1C
  solvation free energy, 298 K: -5.96 kcal/mol
In O
  solvation free energy, 298 K: -5.29 kcal/mol

## O=[N+]([O-])c1cccc(CO)c1
In O
  solvation free energy, 298 K: -9.19 kcal/mol

## CCN(C)N=O
In CC(C)CC(C)(C)C
  solvation free energy, 298 K: -4.43 kcal/mol
In O
  solvation free energy, 298 K: -5.73 kcal/mol

## C=CC(C)(C)C
In C=CCCCCCCCCCCCCCC
  solvation free energy, 298 K: -2.97 kcal/mol
In O
  solvation free energy, 298 K: 1.57 kcal/mol

## O=c1[nH]cc(C(F)(F)F)c(=O)[nH]1
In O
  solvation free energy, 298 K: -15.5 kcal/mol

## CCC(C)(C)OC
In CC(=O)N(C)C
  solvation free energy, 298 K: -3.92 kcal/mol
In CC(C)(C)O
  solvation free energy, 298 K: -4.22 kcal/mol
In CC(C)CC(C)(C)C
  solvation free energy, 298 K: -4.24 kcal/mol
In CCCCCC
  solvation free energy, 298 K: -4.47 kcal/mol
In CCCCCCC
  solvation free energy, 298 K: -4.24 kcal/mol
In CCCCCCCCCC
  solvation free energy, 298 K: -4.16 kcal/mol
In CCCCCCCCO
  solvation free energy, 298 K: -4.07 kcal/mol
In CCCCN(C=O)CCCC
  solvation free energy, 298 K: -4.11 kcal/mol
In CCN1CCCC1=O
  solvation free energy, 298 K: -3.85 kcal/mol
In CCN(CC)C(C)=O
  solvation free energy, 298 K: -4.04 kcal/mol
In CCNC(C)=O
  solvation free energy, 298 K: -3.86 kcal/mol
In CCNC=O
  solvation free energy, 298 K: -3.79 kcal/mol
In CN1CCCCC1=O
  solvation free energy, 298 K: -3.86 kcal/mol
In CN(C)C=O
  solvation free energy, 298 K: -3.78 kcal/mol
In CNC(C)=O
  solvation free energy, 298 K: -3.75 kcal/mol
In CNC=O
  solvation free energy, 298 K: -3.62 kcal/mol
In CO
  solvation free energy, 298 K: -4.26 kcal/mol
In O
  solvation free energy, 298 K: -1.77 kcal/mol

## Clc1c(Cl)c(Cl)c2c(c1Cl)Oc1c(Cl)c(Cl)c(Cl)c(Cl)c1O2
In O
  solvation free energy, 298 K: -4.53 kcal/mol

## CCCSC(=O)N(CCC)CCC
In O
  solvation free energy, 298 K: -4.13 kcal/mol

## CC(C)CC(=O)O
In O
  solvation free energy, 298 K: -6.09 kcal/mol

## ClC(Cl)(Cl)Br
In CS(C)=O
  solvation free energy, 298 K: -4.78 kcal/mol

## COc1ccc(C(c2ccc(OC)cc2)C(Cl)(Cl)Cl)cc1
In O
  solvation free energy, 298 K: -6.93 kcal/mol

## CCCCCOC(=O)CC
In O
  solvation free energy, 298 K: -2.11 kcal/mol

## CC(=O)OCC=C(C)CCC=C(C)CCC=C(C)C
In O
  solvation free energy, 298 K: -3.96 kcal/mol

## COC(=O)C(F)(F)F
In O
  solvation free energy, 298 K: -1.1 kcal/mol

## ClC1CCCCC1
In O
  solvation free energy, 298 K: -0.93 kcal/mol

## CC=C(C)C=CC=C(C)C
In O
  solvation free energy, 298 K: -0.55 kcal/mol

## CN(C)C1CCCCC1
In O
  solvation free energy, 298 K: -4.12 kcal/mol

## CC(C)S
In O
  solvation free energy, 298 K: -0.7 kcal/mol

## CC(N)=O
In C=CCCCCCCC=C
  solvation free energy, 298 K: -4.98 kcal/mol
In C=CCCCCCCCCCCCCCC
  solvation free energy, 298 K: -4.26 kcal/mol

## Cc1cc(C)c(C)cc1C
In CC(C)(C)O
  solvation free energy, 298 K: -6.62 kcal/mol
In CC(C)CC(C)(C)C
  solvation free energy, 298 K: -7.1 kcal/mol
In CC(C)CC(C)O
  solvation free energy, 298 K: -6.69 kcal/mol
In CC(C)CCO
  solvation free energy, 298 K: -6.63 kcal/mol
In CC(C)CO
  solvation free energy, 298 K: -6.52 kcal/mol
In CC(C)O
  solvation free energy, 298 K: -6.49 kcal/mol
In CCC(C)O
  solvation free energy, 298 K: -6.62 kcal/mol
In CCCC(C)O
  solvation free energy, 298 K: -6.69 kcal/mol
In CCCCCC
  solvation free energy, 298 K: -7.24 kcal/mol
In CCCCCCC
  solvation free energy, 298 K: -7.19 kcal/mol
In CCCCCCCC
  solvation free energy, 298 K: -7.14 kcal/mol
In CCCCCCCCC=CCCCCCCCC(=O)OCC(COC(=O)CCCCCCCC=CCCCCCCCC)OC(=O)CCCCCCCC=CCCCCCCCC
  solvation free energy, 298 K: -7.13 kcal/mol
In CCCCCCCCCC
  solvation free energy, 298 K: -7.08 kcal/mol
In CCCCCCCCCCO
  solvation free energy, 298 K: -6.84 kcal/mol
In CCCCCCCCO
  solvation free energy, 298 K: -6.81 kcal/mol
In CCCCCCCO
  solvation free energy, 298 K: -6.78 kcal/mol
In CCCCCCO
  solvation free energy, 298 K: -6.75 kcal/mol
In CCCCCO
  solvation free energy, 298 K: -6.71 kcal/mol
In CCCCO
  solvation free energy, 298 K: -6.71 kcal/mol
In CCCCOCCCC
  solvation free energy, 298 K: -7.19 kcal/mol
In CCCO
  solvation free energy, 298 K: -6.54 kcal/mol
In CCO
  solvation free energy, 298 K: -6.44 kcal/mol
In CCOCC
  solvation free energy, 298 K: -7.34 kcal/mol
In CO
  solvation free energy, 298 K: -6.18 kcal/mol
In O
  solvation free energy, 298 K: -0.72 kcal/mol

## CCCCCCCBr
In O
  solvation free energy, 298 K: 0.34 kcal/mol

## Clc1ccc(-c2ccc(Cl)c(Cl)c2)c(Cl)c1
In O
  solvation free energy, 298 K: -3.15 kcal/mol

## Clc1c(Cl)c(Cl)c2c(c1Cl)Oc1ccccc1O2
In O
  solvation free energy, 298 K: -3.81 kcal/mol

## COc1ccc(N)cc1
In CC(C)CCO
  solvation free energy, 298 K: -8.92 kcal/mol
In O
  solvation free energy, 298 K: -7.54 kcal/mol

## CC1CO1 (configuration not stated)
In CC=O
  solvation free energy, 298 K: -3.7 kcal/mol

## CCC(=O)OC
In C1CCOC1
  solvation free energy, 298 K: -4.45 kcal/mol
In CCCCCC
  solvation free energy, 298 K: -3.65 kcal/mol
In CCCCCCC
  solvation free energy, 298 K: -3.63 kcal/mol
In CCCCCCCC
  solvation free energy, 298 K: -3.57 kcal/mol
In CCCCCCCCCC
  solvation free energy, 298 K: -3.49 kcal/mol
In CCCO
  solvation free energy, 298 K: -3.89 kcal/mol
In CCO
  solvation free energy, 298 K: -4.15 kcal/mol
In CO
  solvation free energy, 298 K: -4.32 kcal/mol
In O
  solvation free energy, 298 K: -2.93 kcal/mol

Source: the CombiSolv-Exp solvation set (Vermeire and Green 2021)
